Test results as given in ChEMBL document CHEMBL5154640, “Novel naphthyl based 1,2,4-trioxanes: Synthesis and in vivo efficacy in the Plasmodium yoelii nigeriensis in Swiss mice” (2021).
Active and inactive are the calls of the source. The rule behind the calls is not given here.

Assays:
[1] = test system: Plasmodium yoelii nigeriensis; experiment: Antimalarial activity against Plasmodium yoelii nigeriensis infected in Swiss mouse assessed as suppression of parasitemia at 96 mg/kg, po measured after 4 days relative to control; format: functional; settings: time 4 day
[2] = test system: Plasmodium yoelii nigeriensis; experiment: Antimalarial activity against Plasmodium yoelii nigeriensis infected in Swiss mouse assessed as suppression of parasitemia at 96 mg/kg, im measured after 4 days relative to control; format: functional; settings: time 4 day
[3] = test system: Plasmodium yoelii nigeriensis; experiment: Antimalarial activity against Plasmodium yoelii nigeriensis infected in Swiss mouse assessed as survival at 96 mg/kg, po measured after 4 days relative to control; format: functional, organism-based; settings: time 4.0 day
[4] = test system: Plasmodium yoelii nigeriensis; experiment: Antimalarial activity against Plasmodium yoelii nigeriensis infected in Swiss mouse assessed as suppression of parasitemia at 48 mg/kg, po measured after 4 days relative to control; format: functional; settings: time 4 day
[5] = test system: Plasmodium yoelii nigeriensis; experiment: Antimalarial activity against Plasmodium yoelii nigeriensis infected in Swiss mouse assessed as suppression of parasitemia at 48 mg/kg, im measured after 4 days relative to control; format: functional; settings: time 4 day
[6] = test system: Plasmodium yoelii nigeriensis; experiment: Antimalarial activity against Plasmodium yoelii nigeriensis infected in Swiss mouse assessed as survival at 48 mg/kg, po measured after 4 days relative to control; format: functional, organism-based; settings: time 4.0 day
[7] = test system: Plasmodium yoelii nigeriensis; experiment: Antimalarial activity against Plasmodium yoelii nigeriensis infected in Swiss mouse assessed as suppression of parasitemia at 24 mg/kg, po measured after 4 days relative to control; format: functional; settings: time 4 day
[8] = test system: Plasmodium yoelii nigeriensis; experiment: Antimalarial activity against Plasmodium yoelii nigeriensis infected in Swiss mouse assessed as suppression of parasitemia at 24 mg/kg, im measured after 4 days relative to control; format: functional; settings: time 4 day
[9] = test system: Plasmodium yoelii nigeriensis; experiment: Antimalarial activity against Plasmodium yoelii nigeriensis infected in Swiss mouse assessed as survival at 48 mg/kg, im measured after 4 days relative to control; format: functional, organism-based; settings: time 4.0 day

Structure (SMILES) | Activity [1] [%] | Activity [2] [%] | further results
C/C(=C/CO)C12OOC3(CCCC3)OC1CC(=O)c1ccccc12 (stereo not given) | 39.17 | 37.43 | 
C=C(c1ccc(OCCO)c2ccccc12)C1COC2(OO1)C1CC3CC(C1)CC2C3 (stereo not given) | 24.1 | 20.54 | 
C=C(c1ccc(OCCO)c2ccccc12)C1COC2(CCCC2)OO1 (stereo not given) | 57.23 | 100 | 
C=C(c1ccc(O[Si](C)(C)C(C)(C)C)c2ccccc12)C1COC2(CCCCC2)OO1 (stereo not given) | 45.56 |  | 
C=C(c1ccc(OC(C)(C)CO)c2ccccc12)C1COC2(CCCCC2)OO1 (stereo not given) | 100 | 100 | Activity [3]: Active
C=C(c1ccc(OCCO)c2ccccc12)C1COC(C)(C)OO1 (stereo not given) | 22.89 | 40 | 
C/C(=C/CO)C12OOC(C)(C)OC1CC(=O)c1ccccc12 (stereo not given) | 53.17 | 37.81 | 
C=C(c1ccc(OC(C)(C)CO)c2ccccc12)C1COC2(CCCC2)OO1 (stereo not given) | 100 | 100 | Activity [3]: Active
C=C(c1ccc(OC(C)(C)CO)c2ccccc12)C1COC2(OO1)C1CC3CC(C1)CC2C3 (stereo not given) | 100 | 100 | Activity [4]: 100%; Activity [5]: 70.24%; Activity [6]: Active; Activity [7]: 100%; Activity [3]: Active; Activity [8]: 27.68%
C=C(c1ccc(OCCO)c2ccccc12)C1COC2(CCCCC2)OO1 (stereo not given) | 75.34 | 100 | 
C=C(c1ccc(O[Si](C)(C)C(C)(C)C)c2ccccc12)C1COC(C)(C)OO1 (stereo not given) | 14.7 |  | 
C=C(c1ccc(O[Si](C)(C)C(C)(C)C)c2ccccc12)C1COC2(CCCC2)OO1 (stereo not given) | 27.71 |  | 
C=C(c1ccc(O[Si](C)(C)C(C)(C)C)c2ccccc12)C1COC2(OO1)C1CC3CC(C1)CC2C3 (stereo not given) | 27.71 |  | 
C[C@@H]1CC[C@H]2[C@@H](C)C(=O)O[C@@H]3O[C@@]4(C)CC[C@@H]1[C@]32OO4 [ARTEMISININ] |  |  | Activity [4]: 100%; Activity [5]: 100%; Activity [9]: Active; Activity [8]: 100%
C/C(=C/CO)C12OOC3(CCCCC3)OC1CC(=O)c1ccccc12 (stereo not given) | 52.78 | 51.63 | 
C=C(c1ccc(OC(C)(C)CO)c2ccccc12)C1COC(C)(C)OO1 (stereo not given) | 24.76 | 48.27 | 
C/C(=C/CO)C12OOC3(OC1CC(=O)c1ccccc12)C1CC2CC(C1)CC3C2 (stereo not given) | 45.68 | 35.89 | 
